Laboratory results published in patent publication US20230136562A1, “SPIROUREA DERIVATIVES” (Idorsia Pharmaceuticals Ltd, priority 2020, published 2023).
Read-outs that look alike come from different tables or passages of the source.

Test system: primary neuronal cultures from embryonic rat brains
Assay: Rat oscillation assay (FLIPR, neuronal calcium oscillations)
Type: cell-based
Conditions: Rattus norvegicus
In short: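 Cortical neurons from E18 Wistar rat embryos, cultured 8–10 days at high density, loaded with 1 μM Fluo-8 AM; calcium oscillations recorded by FLIPR once per second in Mg-free HBSS with 2 mM CaCl2, 20 mM HEPES, pH 7.4. Two acquisitions ("Acute", 500 sec, compound added at 250 sec; "20 min"), ± Kv7 blocker XE-991.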

[1] = 20 min, AUC of fluorescence measured 20 min after compound addition, read-out: FLIPR: IC50 [nM] 20 min
[2] = Acute phase, ratio of AUC fluorescence before and after compound addition, read-out: FLIPR: IC50 [nM] acute

Row | Structure (SMILES) | IC50 [1] | IC50 [2]
1 | COCC(NC(=O)NC1CC2(CCC2)C1)c1ccnc(OCC(F)(F)F)c1 (racemic) [Example 92, (±)-1-{2-Methoxy-1-[2-(2,2,2-trifluoro-ethoxy)-pyridin-4-yl]-ethyl}-3-spiro[3.3]hept-2-yl-urea] | 0.8 nM | 1.3 nM
2 | COc1c(CNC(=O)NC2CC3(CCC3)C2)cccc1C(F)(F)F [Example 22, 1-(2-Methoxy-3-trifluoromethyl-benzyl)-3-spiro[3.3]hept-2-yl-urea] | 268 nM | 275 nM
3 | O=C(NC1CC2(CCC2)C1)N[C@H](CO)c1cccc(C(F)(F)F)c1 (single isomer, unassigned) [Example 185] | 753 nM | 936 nM
4 | O=C(NCc1nccc(OCC(F)(F)F)n1)NC1CC2(CCC2)C1 [Example 112, 1-Spiro[3.3]hept-2-yl-3-[4-(2,2,2-trifluoro-ethoxy)-pyrimidin-2-ylmethyl]-urea] | 1420 nM | 1100 nM
5 | O=C(NCc1cc(C(F)(F)F)ccc1F)NC1CC2(CCC2)C1 [Example 16, 1-(2-Fluoro-5-trifluoromethyl-benzyl)-3-spiro[3.3]hept-2-yl-urea] | 196 nM | 224 nM
6 | CC(NC(=O)NC1CC2(C1)CC(F)(F)C2)c1cccc(C(F)(F)F)c1 (racemic) [Example 161, (±)-1-(6,6-Difluoro-spiro[3.3]hept-2-yl)-3-[1-(3-trifluoromethyl-phenyl)-ethyl]-urea] | 97 nM | 78 nM
7 | COCC(Oc1cccc(CNC(=O)NC2CC3(CCC3)C2)n1)C(F)(F)F (racemic) [Example 104, (±)-1-Spiro[3.3]hept-2-yl-3-[6-(2,2,2-trifluoro-1-methoxymethyl-ethoxy)-pyridin-2-ylmethyl]-urea] | 295 nM | 292 nM
8 | COCC(Oc1cc(CNC(=O)NC2CC3(CCC3)C2)ccn1)C(F)(F)F (racemic) [Example 107, (±)-1-Spiro[3.3]hept-2-yl-3-[2-(2,2,2-trifluoro-1-methoxymethyl-ethoxy)-pyridin-4-ylmethyl]-urea] | 91 nM | 72 nM
9 | COCC(NC(=O)NC1CC2(CCC2)C1)c1cccc(S(C)(=O)=O)c1 (racemic) [Example 86, (±)-1-[1-(3-Methanesulfonyl-phenyl)-2-methoxy-ethyl]-3-spiro[3.3]hept-2-yl-urea] | 91 nM | 110 nM
10 | O=C(NC1CC2(CC2)C1)NC1(c2cccc(OC(F)F)c2)CC1 [Example 136, 1-[1-(3-Difluoromethoxy-phenyl)-cyclopropyl]-3-spiro[2.3]hex-5-yl-urea] | 386 nM | 334 nM
11 | CC(NC(=O)NC1CC2(CC2)C1)c1cccc(OC(F)(F)F)c1 (racemic) [Example 141, (±)-1-Spiro[2.3]hex-5-yl-3-[1-(3-trifluoromethoxy-phenyl)-ethyl]-urea] | 26 nM | 22 nM
12 | Cc1cc(OCC(F)(F)F)cc(C(C)NC(=O)NC2CC3(CCC3)C2)c1 (racemic) [Example 32, (±)-1-{1-[3-Methyl-5-(2,2,2-trifluoro-ethoxy)-phenyl]-ethyl}-3-spiro[3.3]hept-2-yl-urea] | 14 nM | 24 nM
13 | O=C(NCc1cccc(OCC(F)(F)F)c1)NC1CC2(CC2)C1 [Example 157, 1-Spiro[2.3]hex-5-yl-3-[3-(2,2,2-trifluoro-ethoxy)-benzyl]-urea] | 156 nM | 74 nM
14 | CC(NC(=O)NC1CC2(CCC2)C1)c1cccc(OC(F)(F)F)c1 (centres unmarked) [Example 119, 1-Spiro[3.3]hept-2-yl-3-[1-(3-trifluoromethoxy-phenyl)-ethyl]-urea] | 12 nM | 10 nM
15 | CC(NC(=O)NC1CC2(CCC2)C1)c1ccc2c(c1)OC(F)(F)O2 (racemic) [Example 65, (±)-1-[1-(2,2-Difluoro-benzo[1,3]dioxol-5-yl)-ethyl]-3-spiro[3.3]hept-2-yl-urea] | 10 nM | 6.7 nM
16 | CSCCC(NC(=O)NC1CC2(CCC2)C1)c1cccc(C(F)(F)F)c1 (racemic) [Example 75, (±)-1-[3-Methylsulfanyl-1-(3-trifluoromethyl-phenyl)-propyl]-3-spiro[3.3]hept-2-yl-urea] | 129 nM | 106 nM
17 | O=C(NCc1cccc(COC(F)(F)F)c1)NC1CC2(CCC2)C1 [Example 43, 1-Spiro[3.3]hept-2-yl-3-(3-trifluoromethoxymethyl-benzyl)-urea] | 22 nM | 16 nM
18 | O=C(NCc1nccc(OCC(F)(F)F)n1)NC1CC2(CC2)C1 [Example 126, 1-Spiro[2.3]hex-5-yl-3-[4-(2,2,2-trifluoro-ethoxy)-pyrimidin-2-ylmethyl]-urea] | 7620 nM | 4960 nM
19 | N#CCC(NC(=O)NC1CC2(CCC2)C1)c1cccc(C(F)(F)F)c1 (racemic) [Example 67, (±)-1-[2-Cyano-1-(3-trifluoromethyl-phenyl)-ethyl]-3-spiro[3.3]hept-2-yl-urea] | 11 nM | 10 nM
20 | Cc1nc(OCC(F)(F)F)cc(C(C)NC(=O)NC2CC3(CCC3)C2)n1 (racemic) [Example 68, (±)-1-{1-[2-Methyl-6-(2,2,2-trifluoro-ethoxy)-pyrimidin-4-yl]-ethyl}-3-spiro[3.3]hept-2-yl-urea] | 18 nM | 18 nM
21 | O=C(NC1CC2(CCC2)C1)NC1(c2cccc(OC(F)F)c2)CC1 [Example 7, 1-[1-(3-Difluoromethoxy-phenyl)-cyclopropyl]-3-spiro[3.3]hept-2-yl-urea] | 142 nM | 85 nM
22 | O=C(NCc1cccc2c1OC(F)(F)O2)NC1CC2(CCC2)C1 [Example 46, 1-(2,2-Difluoro-benzo[1,3]dioxol-4-ylmethyl)-3-spiro[3.3]hept-2-yl-urea] | 285 nM | 234 nM
23 | COC[C@H](NC(=O)NC1CC2(CCC2)C1)c1ccnc(OC(F)F)c1 (single isomer, unassigned) [Example 187] | 3.9 nM | 2.7 nM
24 | CC(NC(=O)NC1CC2(CC2)C1)c1cc(F)cc(OCC(F)(F)F)c1 (racemic) [Example 132, (±)-1-{1-[3-Fluoro-5-(2,2,2-trifluoro-ethoxy)-phenyl]-ethyl}-3-spiro[2.3]hex-5-yl-urea] | 110 nM | 79 nM
25 | O=C(NCc1cccc(OC(F)(F)F)c1F)NC1CC2(CCC2)C1 [Example 8, 1-(2-Fluoro-3-trifluoromethoxy-benzyl)-3-spiro[3.3]hept-2-yl-urea] | 35 nM | 78 nM
26 | CC(Oc1cccc(C2(NC(=O)NC3CC4(CC4)C3)CC2)c1)C(F)(F)F (racemic) [Example 135, (±)-1-Spiro[2.3]hex-5-yl-3-{1-[3-(2,2,2-trifluoro-1-methyl-ethoxy)-phenyl]-cyclopropyl}-urea] | 115 nM | 133 nM
27 | COc1ccc(OCC(F)(F)F)cc1C(C)NC(=O)NC1CC2(CCC2)C1 (racemic) [Example 40, (±)-1-{1-[2-Methoxy-5-(2,2,2-trifluoro-ethoxy)-phenyl]-ethyl}-3-spiro[3.3]hept-2-yl-urea] | 382 nM | 351 nM
28 | C=CCC(NC(=O)NC1CC2(CCC2)C1)c1cccc(C(F)(F)F)c1 (racemic) [Example 80, (±)-1-Spiro[3.3]hept-2-yl-3-[1-(3-trifluoromethyl-phenyl)-but-3-enyl]-urea] | 14 nM | 13 nM
